The record followed here is PMC6100075, “Correlation between the Potency of Flavonoids on Mushroom Tyrosinase Inhibitory Activity and Melanin Synthesis in Melanocytes” (Molecules : A Journal of Synthetic Chemistry and Natural …, 2018).

The target of one data set is mushroom tyrosinase (Agaricus bisporus, UniProt C7FF04). Put plainly: Mushroom tyrosinase inhibitory assay (o-diphenolase activity, L-DOPA as substrate).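 For all read-outs here: enzyme and test sample preincubated 10 min at 25 °C in pH 6.8 phosphate buffer, 50% DMSO vehicle as control, enzyme-free mixture as blank.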 As to conditions: for inhibition at 300 µM: read-out: Mushroom Tyrosinase Inhibition % Inhibition (at 300 μM); for inhibition at 200 µM: read-out: Mushroom Tyrosinase Inhibition % Inhibition (at 200 μM); for inhibitory activity on mushroom tyrosinase (in words): o-diphenolase. It is filed as biochemical.
mushroom tyrosinase, sequence (G1K3P4 entry or part of it): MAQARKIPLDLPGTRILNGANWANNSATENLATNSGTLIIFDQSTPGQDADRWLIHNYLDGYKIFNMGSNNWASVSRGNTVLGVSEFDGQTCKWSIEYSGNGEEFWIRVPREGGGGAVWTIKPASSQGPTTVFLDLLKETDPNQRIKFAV
mushroom tyrosinase, sequence (C7FF04 2-392): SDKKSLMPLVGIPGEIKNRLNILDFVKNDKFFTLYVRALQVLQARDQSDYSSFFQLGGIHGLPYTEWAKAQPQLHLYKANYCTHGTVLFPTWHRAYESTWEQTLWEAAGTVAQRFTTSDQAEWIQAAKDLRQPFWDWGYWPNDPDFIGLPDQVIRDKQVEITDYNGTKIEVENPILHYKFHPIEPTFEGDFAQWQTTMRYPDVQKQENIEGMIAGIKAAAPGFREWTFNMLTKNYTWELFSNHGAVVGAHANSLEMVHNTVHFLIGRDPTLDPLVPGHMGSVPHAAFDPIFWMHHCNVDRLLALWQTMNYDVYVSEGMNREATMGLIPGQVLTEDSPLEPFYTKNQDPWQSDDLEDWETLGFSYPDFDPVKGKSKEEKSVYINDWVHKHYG

Data set [1] can be described thus: Cell viability assay (PrestoBlue resazurin).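 Note: mouse B16-F10 melanoma cells exposed to test samples for 72 h, with viability read as fluorescence of resorufin formed when living cells reduce PrestoBlue resazurin.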 The format is cell-based, Mus musculus (mouse). Particulars: mouse, 72 h, relative to control, read-out: % Cell Viability.
The test system of a further data set is B16-F10 melanoma cells. Nature of the data set: Total melanin content assay. The format is cell-based, Mus musculus (mouse). As to conditions: for activity at 15 µM / activity at 30 µM: read-out: % Melanin Content. Here is the method:
Mus musculus (mouse) melanoma cell line, B16-F10 (ATCC® Number: CRL-6475™, Manassas, VA, USA), was cultured in complete Dulbecco′s Modified Eagle′s Medium (DMEM, phenol red-free medium) containing 10% fetal bovine serum, 25 mM glucose, 4 mM L-glutamine, 1 mM sodium pyruvate, 10 μg/mL penicillin, and 10 μg/mL streptomycin, at 37 °C, with 5% carbon dioxide (CO2) in a humidified atmosphere.
The total melanin content, produced both extracellularly and intracellularly, was determined as follows: B16-F10 cells were seeded onto a 24-well plate at a concentration of 50,000 cells/0.5 mL/well and were incubated for 24 h, followed by treatment with either the test compounds or the control (0.5% DMSO), and then incubated for 72 h. For extraction, the total produced melanin and 0.5 mL of 2 N NaOH containing 20% DMSO were added directly to the cell culture medium, mixed by pipetting and then incubated at room temperature for 1 h. The lysed cell extract was centrifuged at 13,000× g for 5 min. Finally, the supernatant was transferred to a 96-well plate and the relative melanin content was detected at 405 nm using a micro plate reader. Kojic acid and oxyresveratrol were used as positive controls.

A further data set deals with T1, murine tyrosinase (Mus musculus, UniProt P11344).
T1 construct: The cells were lysed by vortex and incubated at 4 °C for 1 h to solubilize the tyrosinase enzyme; endogenous in cells; host or cells: B16-F10 melanoma cells (Triton X-100 lysate, dialyzed)
T1 sequence (P11344 19-533): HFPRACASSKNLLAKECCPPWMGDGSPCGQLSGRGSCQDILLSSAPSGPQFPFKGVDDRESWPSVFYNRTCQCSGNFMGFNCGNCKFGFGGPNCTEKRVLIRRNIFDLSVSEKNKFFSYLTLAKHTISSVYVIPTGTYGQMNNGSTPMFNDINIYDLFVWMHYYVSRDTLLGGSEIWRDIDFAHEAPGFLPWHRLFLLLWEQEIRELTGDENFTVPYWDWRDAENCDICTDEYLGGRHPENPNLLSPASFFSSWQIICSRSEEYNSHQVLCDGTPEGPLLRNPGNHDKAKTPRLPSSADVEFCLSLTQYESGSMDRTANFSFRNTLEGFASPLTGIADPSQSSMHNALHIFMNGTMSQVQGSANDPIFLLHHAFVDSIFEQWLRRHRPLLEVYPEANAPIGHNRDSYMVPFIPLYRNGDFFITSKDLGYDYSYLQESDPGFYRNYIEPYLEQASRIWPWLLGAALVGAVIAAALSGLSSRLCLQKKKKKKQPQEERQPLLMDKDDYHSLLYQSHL
Put plainly: Murine tyrosinase inhibitory assay (o-diphenolase activity, crude enzyme from B16-F10 melanoma cells).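 Note: crude tyrosinase taken from lysed, dialyzed B16-F10 cell extract, with the inhibition reaction incubated for 2 h at 37 °C.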 The format is biochemical.

[2] abbreviates: Mus musculus, B16-F10, 15 μM, 72 h, relative to control.
Setting [3] is: Mus musculus, B16-F10, 30 μM, 72 h, relative to control.
Setting [4] is: 200 μM, L-DOPA substrate, read-out: Murine Tyrosinase Inhibition, % (at 200 μM), symbol.
The mark [5] stands for this setting: 200 μM, L-DOPA substrate, read-out: Murine Tyrosinase Inhibition, % (at 200 μM).

Where two headings read alike, the source gives them in different places.

What is called inhibition is the relative decrease from the control value, in per cent. In general, viability refers to a read-out of living cells in per cent, often relative to untreated cells.

In the case of `COc1cc2c(cc1C1COc3cc(O)ccc3C1=O)OCO2` (stereo not shown) [Compound 11, Onogenin], the inhibition at 300 µM at mushroom tyrosinase (L-DOPA substrate) is 0%. In data set [1] (B16-F10 melanoma cells), the viability at 72 h, 15 µM stood at 100 ± 5% and the viability at 72 h, 30 µM was determined as 92 ± 2%. Also, the activity at 15 µM in the data set on B16-F10 melanoma cells (setting [2]) is 134 ± 4.6%. The activity at 30 µM in the data set with B16-F10 melanoma cells (setting [3]) came to 170 ± 15.4%. The inhibition at 200 µM on murine tyrosinase (setting [4]) is less than 0%.

With `COc1cc(O)c2c(=O)c(-c3ccc(O)cc3O)coc2c1` [Compound 9, Cajanin], the inhibition at 200 µM at mushroom tyrosinase amounted to 65 ± 1.6%. In addition, in data set [1], the viability at 72 h, 15 µM came out at 102 ± 6.6% and the viability at 72 h, 30 µM worked out at 107 ± 3.3%. The “effect on melanin content (in words, Figure 1)” value in the data set with B16-F10 melanoma cells (30 μM) is reported as “inhibitory effect of melanogenesis”. Also, in the data set on B16-F10 melanoma cells (Mus musculus, B16-F10, 72 h), the activity at 15 µM is 65.8 ± 7.5% and the activity at 30 µM was found to be 61.6 ± 8.9%. In addition, the inhibition at 15 µM with B16-F10 melanoma cells (Mus musculus, B16-F10, read-out: inhibition of melanogenesis) is 34%. For the same compound, the inhibition at 200 µM at murine tyrosinase (read-out: Murine Tyrosinase Inhibition, % (at 200 μM)) was 9.2 ± 1.5%.

As to `COc1c(O)cc2occ(-c3ccc(O)cc3)c(=O)c2c1O` [Compound 8, Tectorigenin], the “behaviour as substrate of mushroom tyrosinase (in words)” value on mushroom tyrosinase (pre-incubation with enzyme in absence of L-DOPA, coloured product at 475 nm) is reported as “chromogenic substrate analogs”. In data set [1] (B16-F10 melanoma cells), the viability at 72 h, 15 µM came out at 130 ± 3.4% and the viability at 72 h, 30 µM came out at 119 ± 1.3%. The activity at 15 µM with B16-F10 melanoma cells (setting [2]) turned out to be 128 ± 2.8%. The activity at 30 µM in the data set with B16-F10 melanoma cells (setting [3]) came to 152 ± 4.7%. Besides, on murine tyrosinase (setting [5]), the inhibition at 200 µM was determined as 10.2 ± 2.9%.

Consider `COc1ccc(-c2coc3cc(O)ccc3c2=O)cc1` [Compound 1, Formononetin], for which, on mushroom tyrosinase (L-DOPA substrate), the inhibition at 300 µM turned out to be 10% and the “inhibitory activity on mushroom tyrosinase (in words)” value is on record as “did not show inhibitory activity”. In addition, in data set [1] (B16-F10 melanoma cells), the viability at 72 h, 15 µM is 96 ± 3.3% and the viability at 72 h, 30 µM was found to be 92.8 ± 9.4%. Also, the activity at 15 µM in the data set on B16-F10 melanoma cells (setting [2]) was 134 ± 2.7%. Moreover, the activity at 30 µM in the data set on B16-F10 melanoma cells (setting [3]) is 155 ± 15.4%. For the same compound, the inhibition at 200 µM on murine tyrosinase (setting [4]) was less than 0%.

Take `COc1cc(OC)c(C2COc3cc(O)cc(O)c3C2=O)cc1O` (stereo not shown) [Compound 18, Dalparvin A]: the inhibition at 500 µM against mushroom tyrosinase (500 μM, L-DOPA substrate) is 0%. In data set [1] (B16-F10 melanoma cells), the viability at 72 h, 15 µM came to 105 ± 4.8% and the viability at 72 h, 30 µM is 100 ± 7.1%. Besides, in the data set with B16-F10 melanoma cells (setting [2]), the activity at 15 µM was 132 ± 4.4%. Also, the activity at 30 µM in the data set with B16-F10 melanoma cells (setting [3]) is 184 ± 10.6%. Also, the inhibition at 200 µM on murine tyrosinase (setting [4]) was less than 0%.

Take `COc1ccc(-c2coc3cc(O)cc(O)c3c2=O)c(OC)c1O` [Compound 7, Khrinone C]: at mushroom tyrosinase (L-DOPA substrate), the inhibition at 300 µM amounted to 2% and the “inhibitory activity on mushroom tyrosinase (in words)” value was “did not show inhibitory activity”. Besides, in data set [1] (B16-F10 melanoma cells), the viability at 72 h, 15 µM turned out to be 93.3 ± 2% and the viability at 72 h, 30 µM is 93.4 ± 2%. The activity at 15 µM with B16-F10 melanoma cells (setting [2]) was 107.6 ± 0.8%. Also, the activity at 30 µM in the data set on B16-F10 melanoma cells (setting [3]) came to 154 ± 9.9%. On murine tyrosinase (setting [4]), the inhibition at 200 µM was less than 0%.

As for `COc1ccc([C@@H]2COc3cc(O)ccc3C2=O)cc1O` [Compound 10, (3R)-7,3′-Dihydroxy-4′-methoxy-isoflavanone], on mushroom tyrosinase, the inhibition at 200 µM was 52.1 ± 0.4%. In data set [1] (B16-F10 melanoma cells), the viability at 72 h, 15 µM stood at 94.9 ± 3.9% and the viability at 72 h, 30 µM turned out to be 96.5 ± 3.9%. Also, the activity at 15 µM with B16-F10 melanoma cells (setting [2]) was 95.1 ± 3%. In addition, the activity at 30 µM in the data set on B16-F10 melanoma cells (setting [3]) amounted to 95.2 ± 2.7%. Besides, the inhibition at 200 µM on murine tyrosinase (setting [4]) is less than 0%.

As for `COc1ccc([C@@H]2COc3cc(O)ccc3C2)c(O)c1` [Compound 19, (3R)-Vestitol], the inhibition at 200 µM was 35.6 ± 2.2% on mushroom tyrosinase (200 μM, L-DOPA substrate) and 12.4 ± 3.3% at murine tyrosinase (setting [5]). Further, in data set [1] (B16-F10 melanoma cells), the viability at 72 h, 15 µM came out at 142 ± 3%. The viability at 72 h, 30 µM in data set [1] (B16-F10 melanoma cells) was 120 ± 4.1%. In the data set with B16-F10 melanoma cells (setting [2]), the activity at 15 µM is 186.1 ± 1.6%. Also, in the data set with B16-F10 melanoma cells (setting [3]), the activity at 30 µM came to 232 ± 9.3%.

`O=C1C[C@@H](c2ccc(O)cc2)Oc2cc(O)ccc21` [Compound 24, (2S)-Liquiritigenin]: the values for the inhibition at 200 µM at mushroom tyrosinase and on murine tyrosinase (setting [5]) were 52.1 ± 1.4% and 13.2 ± 2.7%, respectively. Moreover, the viability at 72 h, 15 µM in data set [1] (B16-F10 melanoma cells) was found to be 98.9 ± 10.7%. Also, the viability at 72 h, 30 µM in data set [1] (B16-F10 melanoma cells) was 100 ± 3.5%. The activity at 15 µM in the data set on B16-F10 melanoma cells (setting [2]) stood at 103 ± 5.5%. For the same compound, the activity at 30 µM with B16-F10 melanoma cells (setting [3]) was 124 ± 2%.

Turning to `COc1ccc(C2COc3cc(O)ccc3C2=O)c(OC)c1OC` [Compound 15, (3R,S)-3′-O-Methylviolanone], the inhibition at 300 µM on mushroom tyrosinase (L-DOPA substrate) stood at 0%. In addition, in data set [1] (B16-F10 melanoma cells), the viability at 72 h, 15 µM was determined as 74.2 ± 7.8% and the viability at 72 h, 30 µM came to 72.9 ± 6.2%. Moreover, the activity at 15 µM in the data set with B16-F10 melanoma cells (setting [2]) came to 143 ± 8.4%. The activity at 30 µM in the data set with B16-F10 melanoma cells (setting [3]) was 157 ± 11.5%. For the same compound, on murine tyrosinase (setting [4]), the inhibition at 200 µM was less than 0%.
